How the values were obtained:
[1] = metabolic stability in liver homogenate; format: in vitro ADME; details: half-life in the liver homogenate (rat)
Protocol: To determine the metabolic stability, the test substance is incubated with tissue homogenate (from the rat liver) in the presence of buffer systems. The drop in starting concentration is tracked as a function of time. After a certain time, the incubation is stopped, and the unaltered test substance is extracted from the homogenate (diethyl ether), concentrated by evaporation under nitrogen, isolated via HPLC (mobile solvent: acetonitrile/water) and detected using UV-absorption.

[2] = tested on: HL 60 cells; assay: differentiation induction of HL 60 cells to macrophages (NBT reduction); format: cell-based, human; details: dose ratio test substance/calcitriol for comparable semi-maximum differentiation induction; 96 hours incubation
Protocol: The differentiation-stimulating action of calcitriol analogues is also detected quantitatively.
It is known in the literature [Mangelsdorf, D. J. et al., J. Cell. Biol. 98: 391 (1984)] that the treatment of human leukemia cells (promyelocyte cell line HL 60) in vitro with calcitriol induces the differentiation of cells to macrophages.
HL 60 cells are cultivated in tissue culture medium (RPMI 10% fetal calf serum) at 37° C. in an atmosphere of 5% CO2 in air.
For substance testing, the cells are centrifuged off, and 2.0×10^5 cells/ml in phenol red-free tissue culture medium is taken up. The test substances are dissolved in ethanol and diluted with tissue culture medium without phenol red to the desired concentration. The dilution stages are mixed with the cell suspension at a ratio of 1:10, and 100 μl each of this cell suspension that is mixed with substance is pipetted into an indentation of a 96-hole plate. For control, a cell suspension is mixed analogously with the solvent.
After incubation for 96 hours at 37° C. in 5% CO2 in air, 100 μl of an NBT-TPA solution (nitro blue tetrazolium (NBT), final concentration in the batch of 1 mg/ml, tetradecanoyl phorbolmyristate-13-acetate (TPA), final concentration in the batch of 2×10^−7 mol/l) is pipetted into each indentation of the 96-hole plate in the cell suspension.
By incubation for 2 hours at 37° C. and 5% CO2 in air, NBT is reduced to insoluble formazan because of the intracellular oxygen radical release, stimulated by TPA, in the cells that are differentiated to macrophages.
To complete the reaction, the indentations of the 96-hole plate are suctioned off, and the cells are affixed to the bottom of the plate by adding methanol and dried after affixing. To dissolve the intracellular formazan crystals that are formed, 100 μl of potassium hydroxide (2 mol/l) and 100 μl of dimethyl sulfoxide are pipetted into each indentation and ultrasonically treated for 1 minute. The concentration of formazan is measured by spectrophotometry at 650 nm.
As a yardstick for the differentiation induction of HL 60 cells to macrophages, the concentration of formed formazan applies.

[3] = acute hypercalcemic action (serum-calcium) in rats; format: in vivo, rat; details: dose ratio test substance/calcitriol for comparable hypercalcemic action; one-time subcutaneous administration, male rats
Protocol: To determine the acute hypercalcemic action of various calcitriol derivatives, the test that is described below is carried out:
The action of control (solution base), reference substance (1,25-dihydroxy vitamin D3=calcitriol) and test substance is tested in each case after one-time subcutaneous administration in groups of 10 healthy male rats (140–170 g). During the testing time, the rats are kept in special cages to determine the excretion of water and mineral substances. Urine is collected in 2 fractions (0–16 hours and 16–22 hours). An oral dose of calcium (0.1 mmol of calcium in 6.5% alpha-hydroxypropylcellulose, 5 ml/animal) replaces at 1600 hours the calcium intake that is lacking by food deprivation. At the end of the test, the animals are killed by decapitation and exsanguinated to determine the serum-calcium values. For the primary screen test in vivo, an individual standard dose (200 μg/kg) is tested. For selected substances, the result is supported by establishing a dose-effect relation.
A hypercalcemic action is shown in serum-calcium level values that are higher than in the control.
The significance of differences between substance groups and controls and between test substance and reference substance are supported with suitable statistical processes.

[4] = target: T1, calcitriol receptor (Sus scrofa, UniProt A3RGC1); assay: calcitriol-receptor test (competition with 3H-calcitriol); details: competition factor = concentration of test substance / concentration of calcitriol at 50% competition; protein extract from intestines of juvenile pigs
T1 sequence (A3RGC1 1-427): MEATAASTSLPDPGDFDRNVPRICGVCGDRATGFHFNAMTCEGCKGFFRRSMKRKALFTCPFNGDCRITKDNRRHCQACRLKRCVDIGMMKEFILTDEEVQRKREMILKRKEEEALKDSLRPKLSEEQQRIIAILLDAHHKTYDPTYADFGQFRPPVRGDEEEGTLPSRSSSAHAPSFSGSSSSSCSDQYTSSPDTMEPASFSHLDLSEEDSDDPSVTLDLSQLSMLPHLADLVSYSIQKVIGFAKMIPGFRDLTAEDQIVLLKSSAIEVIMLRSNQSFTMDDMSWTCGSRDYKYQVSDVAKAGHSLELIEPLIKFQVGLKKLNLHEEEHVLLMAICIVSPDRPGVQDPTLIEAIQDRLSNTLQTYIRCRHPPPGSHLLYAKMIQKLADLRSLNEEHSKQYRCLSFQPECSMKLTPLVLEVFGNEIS
Protocol: The vitamin D activity of the substances according to the invention is determined with the aid of the calcitriol-receptor test. It is carried out using a protein extract from the intestines of juvenile pigs.
Then, the samples are centrifuged at 10,000 g for 5 minutes at 4° C. The supernatant is decanted and measured in a β-counter after 1 hour of equilibration in Picofluor 15™.
The competition curves that are obtained at various concentrations of test substance as well as of reference substance (unlabeled calcitriol) at constant concentration of the reference substance (^3H-calcitriol) are placed in relation to one another, and a competition factor (KF) is determined.
It is defined as a quotient of the concentrations of the respective test substance and the reference substance, which are necessary for 50% competition:

| T½ [1] [h] | DR Ca [3] | KF [4] | SMILES | DR HL 60 [2] | half-life ([1]; read-out: T½) [h] |
| --- | --- | --- | --- | --- | --- |
| 1.83 | 30 | 10 | C=C1/C(=C\C=C2/CCC[C@]3(C)[C@@H]([C@H](C)/C=C/CC4(C(C)=O)CC4)CC[C@@H]23)C[C@@H](O)C[C@@H]1O [Compound 66, (5Z,7E,22E)-(1S,3R)-25-Acetyl-26,27-cyclo-9,10-secocholesta-5,7,10(19),22-tetraene-1,3-diol] | 0.5 |  |
| 2 | 100 | 9 | C=C1/C(=C\C=C2/CCC[C@]3(C)[C@@H]([C@H](C)/C=C/CC4(C(=O)CCC)CC4)CC[C@@H]23)C[C@@H](O)C[C@@H]1O [Compound 71, (5Z,7E,22E)-(1S,3R)-25-(1-Oxobutyl)-26,27-cyclo-9,10-secocholesta-5,7,10(19),22-tetraene-1,3-diol] | 1.7 |  |
| >2 | >100 | 7 | C=C1/C(=C\C=C2/CCC[C@]3(C)[C@@H]([C@H](C)/C=C/CC4(C(=O)CCCC)CC4)CC[C@@H]23)C[C@@H](O)C[C@@H]1O [Compound 76, (5Z,7E,22E)-(1S,3R)-25-(1-Oxopentyl)-26,27-cyclo-9,10-secocholesta-5,7,10(19),22-tetraene-1,3-diol] | 19 |  |
| >2 | >>300 | 40 | C=C1C(=CC=C2CCCC3(C)C2CCC3C(C)C=CCC2(C(=O)CCCCC)CC2)CC(O)CC1O [Compound 81, (5Z,7E,22E)-(1S,3R)-25-(1-Oxohexyl)-26,27-cyclo-9,10-secocholesta-5,7,10(19),22-tetraene-1,3-diol] | 9 |  |
| 2 | 20 | 5 | C=C1/C(=C\C=C2/CCC[C@]3(C)[C@@H]([C@H](C)/C=C/CCC4(C(C)=O)CC4)CC[C@@H]23)C[C@@H](O)C[C@@H]1O [Compound 126, (5Z,7E,22E)-(1S,3R)-25-Acetyl-26,27-cyclo-24a-homo-9,10-secocholesta-5,7,10(19),22-tetraene-1,3-diol] | 0.5 |  |
| 2 | >100 | 30 | C=C1/C(=C\C=C2/CCC[C@]3(C)[C@@H]([C@H](C)[C@@H](O)CCCC4(C(C)=O)CC4)CC[C@@H]23)C[C@@H](O)C[C@@H]1O [Compound 127, (5Z,7E)-(1S,3R,22S)-25-Acetyl-26,27-cyclo-24a-homo-9,10-secocholesta-5,7,10(19)-triene-1,3,22-triol] | 4 |  |
| 2 | 30 | 10 | C=C1C(=CC=C2CCCC3(C)C2CCC3C(C)C=CCCC2(C(=O)CCC)CC2)CC(O)CC1O [Compound 131, (5Z,7E,22E)-(1S,3R)-25-(1-oxobutyl)-26,27-cyclo-24a-homo-9,10-secocholesta-5,7,10(19) ,22-tetraene-1,3-diol] | 0.2 |  |
| 1.67 | >100 | 20 | C=C1C(=CC=C2CCCC3(C)C2CCC3C(C)C(O)CCCC2(C(=O)CCC)CC2)CC(O)CC1O [Compound 132, (5Z,7E)-(1S,3R,22S)-25-(1-Oxobutyl)-26,27-cyclo-24a-homo-9,10-secocholesta-5,7,10(19)-triene-1,3,22-triol] | 2 |  |
| >2 | >100 | 10 | C=C1C(=CC=C2CCCC3(C)C2CCC3C(C)C=CCCC2(C(=O)CCCC)CC2)CC(O)CC1O [Compound 136, (5Z,7E,22E)-(1S,3R)-25-(1-Oxopentyl)-26,27-cyclo-24a-homo-9,10-secocholesta-5,7,10(19),22-tetraene-1,3-diol] | 17 |  |
| 2 | >100 | 3 | C=C1/C(=C\C=C2/CCC[C@]3(C)[C@@H]([C@H](C)/C=C/[C@@H](O)CCC4(C(C)=O)CC4)CC[C@@H]23)C[C@@H](O)C[C@@H]1O [Compound 168b, (5Z,7E,22E)-(1S,3R,24S)-25-acetyl-26,27-cyclo-24a,24b-dihomo-9,10-secocholesta-5,7,10(19),22-tetraene-1,3,24-triol] | 7 |  |
| 1.5 | >100 | 1 | C=C1/C(=C\C=C2/CCC[C@]3(C)[C@@H]([C@H](C)/C=C/[C@@H](O)CCC4(C(=O)CCC)CC4)CC[C@@H]23)C[C@@H](O)C[C@@H]1O [Compound 175b, (5Z,7E,22E)-(1S,3R,24S)-25-(1-oxobutyl)-26,27-cyclo-24a,24b-dihomo-9,10-secocholesta-5,7,10(19),22-tetraene-1,3,24-triol] | 3 |  |
| 1.67 | >100 | 2 | C=C1/C(=C\C=C2/CCC[C@]3(C)[C@@H]([C@H](C)/C=C/[C@@H](O)CCC4(C(=O)CCCC)CC4)CC[C@@H]23)C[C@@H](O)C[C@@H]1O [Compound 182b, (5Z,7E,22E)-(1S,3R,24S)-25-(1-oxopentyl)-26,27-cyclo-24a,24b-dihomo-9,10-secocholesta-5,7,10(19) ,22-tetraene-1,3,24-triol] | 18 |  |
| 1.33 | >>1 | 3 | C=C1/C(=C\C=C2/CCC[C@]3(C)[C@@H]([C@H](C)/C=C/[C@H](O)C4(CC)CC4)CC[C@@H]23)C[C@@H](O)C[C@@H]1O [Compound 214a, (5Z,7E,22E)-(1S,3R,24S)-25-Ethyl-26,27-cyclo-9,10-secocholesta-5,7,10(19),22-tetraene-1,3,24-triol] | 1.5 |  |
| 1.67 | >1 | 1 | C=C1/C(=C\C=C2/CCC[C@]3(C)[C@@H]([C@H](C)/C=C/[C@@H](O)C4(CC)CC4)CC[C@@H]23)C[C@@H](O)C[C@@H]1O [Compound 214b, (5Z,7E,22E)-(1S,3R,24R)-25-ethyl-26,27-cyclo-9,10-secocholesta-5,7,10(19),22-tetraene-1,3,24-triol] | 0.1 |  |
| 1.5 | 10 | 2 | C=C1/C(=C\C=C2/CCC[C@]3(C)[C@@H]([C@H](C)/C=C/[C@@H](O)C4(/C=C/CC)CC4)CC[C@@H]23)C[C@@H](O)C[C@@H]1O [Compound 221b, [5Z,7E,22E,25(E)]-(1S,3R,24R)-25-(1-butenyl)-26,27-cyclo-9,10-secocholesta-5,7,10(19),22-tetraene-1,3,24-triol] | 0.1 |  |

| SMILES | T½ [1] [h] | DR Ca [3] | KF [4] | DR HL 60 [2] | half-life ([1]; read-out: T½) [h] |
| --- | --- | --- | --- | --- | --- |
| C=C1/C(=C\C=C2/CCC[C@]3(C)[C@@H]([C@H](C)CCCC(C)(C)O)CC[C@@H]23)C[C@@H](O)C[C@@H]1O [calcitriol, 1α,25-dihydroxy vitamin D3, reference compound] |  | 1 |  | 1 | 2 |

— US7071344B1, “Vitamin D derivatives with cyclopropyl rings in the lateral chains, a method and intermediate products for the production thereof and the utilization thereof for producing medicaments” (Schering AG, priority 1997, dated 2006)
